{"source": "patent US20250270180A1", "about": "“MEK INHIBITORS AND THERAPEUTIC USES THEREOF” (Immuneering Corporation, priority 2020, published 2025)", "key": {"[1]": {"test": "Microsome stability, beagle dog", "type": "in vitro ADME", "conditions": "microsomes, 2 μM"}, "CYP450 2C19": {"molecular_target": "CYP450 2C19 (Homo sapiens, UniProt P33261)", "sequence (P33261 whole entry)": "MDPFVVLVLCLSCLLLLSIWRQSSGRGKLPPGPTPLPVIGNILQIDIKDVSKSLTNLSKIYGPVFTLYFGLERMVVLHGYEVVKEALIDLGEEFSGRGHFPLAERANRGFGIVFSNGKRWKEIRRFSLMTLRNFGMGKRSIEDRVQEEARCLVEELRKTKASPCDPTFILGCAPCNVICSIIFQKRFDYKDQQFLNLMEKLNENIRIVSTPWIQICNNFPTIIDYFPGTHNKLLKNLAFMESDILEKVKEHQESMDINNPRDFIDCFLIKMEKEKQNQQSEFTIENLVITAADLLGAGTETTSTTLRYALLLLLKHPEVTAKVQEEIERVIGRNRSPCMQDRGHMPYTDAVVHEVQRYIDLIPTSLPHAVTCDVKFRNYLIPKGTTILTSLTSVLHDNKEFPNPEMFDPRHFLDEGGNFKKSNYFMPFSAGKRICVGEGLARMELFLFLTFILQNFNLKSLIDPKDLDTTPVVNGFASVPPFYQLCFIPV", "test": "CYP450 panel, 2C19", "conditions": "10 μM; substrate mephenytoin"}, "[2]": {"test": "Plasma stability, beagle dog", "type": "in vitro ADME", "conditions": "2 μM"}, "CYP450 2B6": {"molecular_target": "T1, CYP450 2B6 (Homo sapiens, UniProt P20813)", "T1 sequence (P20813 1-491)": "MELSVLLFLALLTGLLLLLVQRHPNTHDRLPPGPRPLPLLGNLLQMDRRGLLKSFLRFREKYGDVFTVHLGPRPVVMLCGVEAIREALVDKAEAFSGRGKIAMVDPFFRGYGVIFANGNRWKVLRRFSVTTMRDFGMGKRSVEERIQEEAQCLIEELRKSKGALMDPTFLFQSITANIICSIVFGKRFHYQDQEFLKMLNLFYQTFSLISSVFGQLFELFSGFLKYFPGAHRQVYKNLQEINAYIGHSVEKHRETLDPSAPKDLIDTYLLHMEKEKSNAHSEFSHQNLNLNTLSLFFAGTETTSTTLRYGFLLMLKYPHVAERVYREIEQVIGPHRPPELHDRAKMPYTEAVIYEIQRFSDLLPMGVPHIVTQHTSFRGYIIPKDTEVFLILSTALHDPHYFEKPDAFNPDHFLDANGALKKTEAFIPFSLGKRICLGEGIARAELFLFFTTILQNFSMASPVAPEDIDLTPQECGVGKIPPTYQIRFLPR", "test": "CYP450 panel, 2B6", "conditions": "10 μM; substrate bupropion"}, "Plasma stability, human": {"test": "Plasma stability, human", "type": "in vitro ADME", "conditions": "2 μM"}, "hERG Channel": {"molecular_target": "hERG Channel (Homo sapiens, UniProt Q12809)", "sequence (Q12809 whole entry)": "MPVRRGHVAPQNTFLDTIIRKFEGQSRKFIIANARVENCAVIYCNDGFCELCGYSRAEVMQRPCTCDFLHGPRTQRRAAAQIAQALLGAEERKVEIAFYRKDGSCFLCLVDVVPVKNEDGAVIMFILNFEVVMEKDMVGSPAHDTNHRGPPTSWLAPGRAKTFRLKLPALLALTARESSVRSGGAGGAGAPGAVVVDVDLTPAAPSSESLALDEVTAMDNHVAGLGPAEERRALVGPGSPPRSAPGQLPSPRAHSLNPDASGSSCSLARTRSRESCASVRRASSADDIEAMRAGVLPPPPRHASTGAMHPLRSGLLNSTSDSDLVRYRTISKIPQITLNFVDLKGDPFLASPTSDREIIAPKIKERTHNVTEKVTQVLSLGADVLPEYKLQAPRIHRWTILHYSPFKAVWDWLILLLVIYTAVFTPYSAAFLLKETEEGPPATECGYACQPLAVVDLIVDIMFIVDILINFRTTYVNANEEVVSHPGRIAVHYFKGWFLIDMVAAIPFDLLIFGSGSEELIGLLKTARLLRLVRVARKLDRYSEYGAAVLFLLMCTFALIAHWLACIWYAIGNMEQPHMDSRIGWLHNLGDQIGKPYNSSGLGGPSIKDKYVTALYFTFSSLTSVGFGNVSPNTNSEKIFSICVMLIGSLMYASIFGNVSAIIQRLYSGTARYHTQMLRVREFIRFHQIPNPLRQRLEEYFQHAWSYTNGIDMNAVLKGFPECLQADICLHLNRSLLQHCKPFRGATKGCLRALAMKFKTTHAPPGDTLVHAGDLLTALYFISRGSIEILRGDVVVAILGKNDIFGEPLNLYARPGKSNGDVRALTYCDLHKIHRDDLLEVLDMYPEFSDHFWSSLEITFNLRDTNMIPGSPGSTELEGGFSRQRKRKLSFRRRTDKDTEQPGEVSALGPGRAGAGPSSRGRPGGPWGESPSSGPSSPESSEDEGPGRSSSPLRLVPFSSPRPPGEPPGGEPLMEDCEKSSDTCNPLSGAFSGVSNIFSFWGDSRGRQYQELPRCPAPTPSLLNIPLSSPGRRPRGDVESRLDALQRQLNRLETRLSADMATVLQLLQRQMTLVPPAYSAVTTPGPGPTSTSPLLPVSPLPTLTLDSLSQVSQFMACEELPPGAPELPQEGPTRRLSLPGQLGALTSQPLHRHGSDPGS", "test": "in vitro"}, "[3]": {"test": "Microsome stability, human", "type": "in vitro ADME", "conditions": "microsomes, 2 μM"}, "[4]": {"test": "Plasma stability, CD-1 mouse", "type": "in vitro ADME", "conditions": "2 μM"}, "[5]": {"test": "Microsome stability, CD-1 mouse", "conditions": "microsomes, 2 μM"}, "CYP450 2C8": {"molecular_target": "T2, CYP450 2C8 (Homo sapiens, UniProt P10632)", "T2 sequence (P10632 1-490)": "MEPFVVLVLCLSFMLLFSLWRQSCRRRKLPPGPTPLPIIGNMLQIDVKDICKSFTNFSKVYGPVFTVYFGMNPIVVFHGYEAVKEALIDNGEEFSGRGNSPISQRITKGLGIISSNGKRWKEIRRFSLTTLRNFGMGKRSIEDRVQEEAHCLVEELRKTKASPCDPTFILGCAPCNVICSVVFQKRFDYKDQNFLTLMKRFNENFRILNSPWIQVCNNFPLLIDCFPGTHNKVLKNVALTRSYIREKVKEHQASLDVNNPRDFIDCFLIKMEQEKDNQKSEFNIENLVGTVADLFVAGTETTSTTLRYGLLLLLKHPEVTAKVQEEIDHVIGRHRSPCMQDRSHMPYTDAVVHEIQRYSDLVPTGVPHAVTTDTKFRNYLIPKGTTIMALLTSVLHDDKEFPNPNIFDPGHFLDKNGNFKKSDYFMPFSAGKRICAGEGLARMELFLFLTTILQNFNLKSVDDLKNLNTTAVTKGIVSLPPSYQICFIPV", "test": "CYP450 panel, 2C8", "conditions": "10 μM; substrate amodiaquine"}, "CYP450 2C9": {"molecular_target": "CYP450 2C9 (Homo sapiens, UniProt P11712)", "sequence (P11712 whole entry)": "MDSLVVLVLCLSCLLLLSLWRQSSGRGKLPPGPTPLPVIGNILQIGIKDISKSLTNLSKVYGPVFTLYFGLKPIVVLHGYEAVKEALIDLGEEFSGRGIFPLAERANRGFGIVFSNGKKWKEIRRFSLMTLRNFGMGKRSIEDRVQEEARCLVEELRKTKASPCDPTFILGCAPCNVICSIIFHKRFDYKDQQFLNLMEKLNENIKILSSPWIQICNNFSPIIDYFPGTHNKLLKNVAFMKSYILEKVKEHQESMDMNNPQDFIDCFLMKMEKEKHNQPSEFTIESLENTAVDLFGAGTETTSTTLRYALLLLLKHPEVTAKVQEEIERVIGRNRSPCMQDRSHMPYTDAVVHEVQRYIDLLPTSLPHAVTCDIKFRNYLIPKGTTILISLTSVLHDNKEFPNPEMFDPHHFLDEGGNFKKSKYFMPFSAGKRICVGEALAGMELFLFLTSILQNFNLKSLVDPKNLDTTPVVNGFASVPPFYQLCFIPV", "test": "CYP450 panel, 2C9", "conditions": "10 μM; substrate Diclofenac"}, "CYP450 2D6": {"molecular_target": "CYP450 2D6 (Homo sapiens, UniProt P10635)", "sequence (P10635 whole entry)": "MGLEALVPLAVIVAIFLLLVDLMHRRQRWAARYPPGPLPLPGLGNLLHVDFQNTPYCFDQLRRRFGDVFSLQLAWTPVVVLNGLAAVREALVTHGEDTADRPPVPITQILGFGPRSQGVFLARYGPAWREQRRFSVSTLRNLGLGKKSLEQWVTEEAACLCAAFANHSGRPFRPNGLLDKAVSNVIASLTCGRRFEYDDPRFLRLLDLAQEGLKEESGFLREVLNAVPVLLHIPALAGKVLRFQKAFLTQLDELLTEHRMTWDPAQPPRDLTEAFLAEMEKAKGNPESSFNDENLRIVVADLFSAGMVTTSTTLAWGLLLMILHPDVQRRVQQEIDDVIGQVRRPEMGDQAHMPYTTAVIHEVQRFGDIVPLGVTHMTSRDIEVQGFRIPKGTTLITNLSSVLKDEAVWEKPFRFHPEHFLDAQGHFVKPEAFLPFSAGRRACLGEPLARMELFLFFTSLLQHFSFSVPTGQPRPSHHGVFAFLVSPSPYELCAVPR", "test": "CYP450 panel, 2D6", "conditions": "10 μM; substrate dextromethophan"}, "CYP450 3A4": {"molecular_target": "CYP450 3A4 (Homo sapiens, UniProt P08684)", "sequence (P08684 whole entry)": "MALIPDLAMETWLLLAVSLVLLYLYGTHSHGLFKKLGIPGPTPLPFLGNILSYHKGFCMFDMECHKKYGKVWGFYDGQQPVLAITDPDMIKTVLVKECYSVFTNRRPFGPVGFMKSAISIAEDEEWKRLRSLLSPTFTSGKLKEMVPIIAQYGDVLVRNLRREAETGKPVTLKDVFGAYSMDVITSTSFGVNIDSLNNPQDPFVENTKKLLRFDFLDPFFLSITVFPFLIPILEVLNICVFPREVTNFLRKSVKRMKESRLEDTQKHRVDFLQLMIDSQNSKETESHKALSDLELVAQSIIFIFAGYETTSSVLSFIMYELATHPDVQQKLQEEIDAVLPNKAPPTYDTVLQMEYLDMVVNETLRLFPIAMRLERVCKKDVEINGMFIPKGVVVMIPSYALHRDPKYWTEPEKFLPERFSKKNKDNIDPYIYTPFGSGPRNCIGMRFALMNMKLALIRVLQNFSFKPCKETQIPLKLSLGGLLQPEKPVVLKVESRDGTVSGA", "test": "CYP450 panel, 3A4", "conditions": "10 μM"}, "CYP450 1A2": {"molecular_target": "T3, CYP450 1A2 (Homo sapiens, UniProt P05177)", "T3 sequence (P05177 1-516)": "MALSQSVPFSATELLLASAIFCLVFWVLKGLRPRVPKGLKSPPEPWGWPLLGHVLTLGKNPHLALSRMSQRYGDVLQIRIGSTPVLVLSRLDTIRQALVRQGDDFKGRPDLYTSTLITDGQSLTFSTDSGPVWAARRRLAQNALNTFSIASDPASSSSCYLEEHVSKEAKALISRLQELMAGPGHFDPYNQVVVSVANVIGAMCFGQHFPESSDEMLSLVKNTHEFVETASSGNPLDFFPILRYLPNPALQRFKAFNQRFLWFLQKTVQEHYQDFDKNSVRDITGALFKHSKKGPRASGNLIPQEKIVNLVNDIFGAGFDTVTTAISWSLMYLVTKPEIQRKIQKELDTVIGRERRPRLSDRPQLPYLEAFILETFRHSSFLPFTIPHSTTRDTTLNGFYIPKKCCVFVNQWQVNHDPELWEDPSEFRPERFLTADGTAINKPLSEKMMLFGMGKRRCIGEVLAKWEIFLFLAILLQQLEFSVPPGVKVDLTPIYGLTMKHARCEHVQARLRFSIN", "test": "CYP450 panel, 1A2", "type": "in vitro ADME", "conditions": "10 μM; substrate phenacetin"}}, "note": "pIC50: −log10 of the molar value.", "data": [{"compound": "CNS(=O)(=O)Nc1cccc(Cc2c(C)c3ccc(OC(=O)N(C)C)cc3oc2=O)c1F", "note": "[Compound 7]", "values": [{"measurement": "Beagle Dog (% Reamining @1 hour)", "setting": "[1]", "value": 57.0, "unit": "%"}, {"measurement": "2C19*", "setting": "CYP450 2C19", "value": 11.6}, {"measurement": "Beagle Dog (% Reamining @2 hour)", "setting": "[2]", "value": 99.8, "unit": "%"}, {"measurement": "2B6*", "setting": "CYP450 2B6", "value": 28.5}, {"measurement": "Human (% Reamining @2 hour)", "setting": "Plasma stability, human", "value": 88.1, "unit": "%"}, {"measurement": "pIC50", "setting": "hERG Channel", "value": 4.54}, {"measurement": "Human (% Reamining @1 hour)", "setting": "[3]", "value": 61.1, "unit": "%"}, {"measurement": "CD-1 Mouse (% Reamining @2 hour)", "setting": "[4]", "value": 56.5, "unit": "%"}, {"measurement": "CD-1 Mouse (% Reamining @1 hour)", "setting": "[5]", "value": 29.6, "unit": "%"}, {"measurement": "2C8*", "setting": "CYP450 2C8", "value": 14.4}, {"measurement": "2C9*", "setting": "CYP450 2C9", "value": 33.8}, {"measurement": "2D6*", "setting": "CYP450 2D6", "value": "−7.4"}, {"measurement": "3A4*", "setting": "CYP450 3A4; substrate midazolam", "value": 29.9}, {"measurement": "3A4^", "setting": "CYP450 3A4; substrate testosterone", "value": 59.7}, {"measurement": "1A2*", "setting": "CYP450 1A2", "value": 0.3}]}]}
